These results are taken from patent US11166948B2, “Pharmaceutical composition for treatment of aortic aneurysm” (National University Corporation Hamamatsu University School …, priority 2017, dated 2021).

The test system of assay [1] is aortic wall hypoxia-induced rat AAA model. In words: Action of Compound 1 in aortic wall hypoxia-induced rat AAA model. It is filed as in vivo. The note with it: vs control group; for mortality due to rupture (non-rupture survival rate): day of operation to Day 28 post operation. The source says: The action of Compound 1 in a rat AAA model (Non-Patent Document 3) induced by operation in which the aortic wall was separated from the surrounding tissue, a catheter was inserted, and then the abdominal aorta was ligated together with a catheter with a thread was studied.
In this test, Compound 1 was manufactured according to the method described in Patent Document 1, and mixed, in a proportion of 0.15%, with a normal diet (FR2, manufactured by Funabashi Farm Co., Ltd.), and the Compound 1-mixed diet was used.
Sprague-Dawley male rats (300 to 350 g: Japan SLC, Inc.) were used in the experiment. The rats were reared at room temperature of 25° C. ±1° C., and allowed to freely take the feed and water.
The model was created according to the method described in Non-Patent Document 3. Specifically, a rat AAA model was created by separating the rat aortic wall from the surrounding tissue, inserting a polyurethane catheter, and then ligating the abdominal aorta together with a plastic catheter with a monofilament thread, and inducing AAA.
The rat models were divided into two groups: a normal diet administration group (hereinafter referred to as “control group”) (n=20) and a 0.15% Compound 1-mixed diet administration group (hereinafter referred to as “Compound 1 group”) (n=20). The normal diet or Compound 1-mixed diet was freely fed in a period from one week before the AAA model creation operation (7 days before operation) to the end of the experiment.
In both the groups, up to 28 days post operation, the aneurysm diameter was measured by echo and comparison in survival was made.
In addition, the surviving animals were sacrificed after 28 days to analyze the AAA pathological tissue.
The AAA maximum short-axis diameter was measured with an ultrasonic diagnostic apparatus (Vevo770, manufactured by VisualSonics Inc.) on the day of operation and Day 7, Day 14, Day 21 and Day 28 post operation.
In the same models as in Example 1, the effect of Compound 1 on the formed AAA was studied.
Specifically, the administration of the Compound 1-mixed diet was started one week after the AAA model creation operation (7 days after operation) until the end of the experiment in this example, in place of one week before the AAA model creation operation (7 days before operation) until the end of the experiment in Example 1 (3). In addition, on Day 7 post operation, rats having an aortic aneurysm diameter of 3 mm or more were selected by measurement with an ultrasonic diagnostic apparatus (Vevo770, manufactured by VisualSonics Inc.), and then the rats were randomly divided into two groups: a normal diet administration group (hereinafter referred to as “control group”) (n=18) and a 0.15% Compound 1-mixed diet administration group (hereinafter referred to as “Compound 1 group”) (n=15). […]

Assay [2] has as its system elastase-induced model rats. The following applies: preventive administration before AAA formation; cited from earlier work.

For `O=C(NCCCOc1ccc2[nH]c(=O)ccc2c1)N(C1CC1)[C@@H]1CCCC[C@H]1O` [Compound 1, (−)-6-[3-[3-cyclopropyl-3-[(1R,2R)-2-hydroxycyclohexyl]ureido]propoxy]-2(1H)-quinolinone], the “aneurysm diameter (AAA maximum short-axis diameter)” value in assay [1] (Example 1: 0.15% Compound 1-mixed diet from 7 days before operation to end of experiment, echo up to Day 28 post operation, no significant difference) is given as “tendency toward suppression of the increase in the aneurysm diameter”; in assay [1] (Example 2: 0.15% Compound 1-mixed diet from 7 days after operation (formed AAA, diameter 3 mm or more), Day 7 to Day 14 post operation, p=0.014) it was “significantly lower”. For the same molecule, the “mortality due to rupture (non-rupture survival rate)” value in assay [1] (Example 1: 0.15% Compound 1-mixed diet from 7 days before operation, Log Rank p=0.036) is listed as “significantly lower”; in assay [1] (Example 2: 0.15% Compound 1-mixed diet from 7 days after operation (formed AAA), Log Rank p=0.055) it was “lower”.
On to `O=C1CCc2cc(OCCCCc3nnnn3C3CCCCC3)ccc2N1` [cilostazol], for which the AAA dilatation entry in assay [2] is reported as “suppresses AAA dilatation”.
